Assays:
[1] = biological target: T1, BTK enzyme (recombinant full-length BTK, hBTK) (Homo sapiens, UniProt Q06187); assay: BTK enzyme activity assay, LANCE TR-FRET; type: biochemical; conditions: 50 pM hBTK, 2 μM biotin-A5-peptide, 25 μM ATP; 60 min compound & enzyme incubation; read-out: IC50 BTK activity value
T1 construct: recombinant protein from baculovirus-transfected Sf9 cells: full-length BTK, 6HIS-tag cleaved; 6HIS (cleaved yes); made in house; host or cells: baculovirus-transfected Sf9 cells

[2] = tested on: HeLa cells; assay: [3H]Adenosine uptake functional cellular assay; type: cell-based; conditions: Homo sapiens, HeLa, accumulation of [3H]adenosine into HeLa cells; compound range 10 μM to […]; read-out: Adenosine uptake inhibition IC50
Procedure, shortened: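 Inhibition of adenosine uptake was measured in HeLa cells (ATCC CCL-2) by following accumulation of tritiated adenosine. Cells were kept overnight at 37° C. with 5% (v/v) CO2, then switched to 40 μL HBSS plus 5% (v/v) FBS. 20 μL of 500 nM [3H]adenosine was added, and uptake was counted on a Topcount NXT reader.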

T1 sequence (Q06187 whole entry): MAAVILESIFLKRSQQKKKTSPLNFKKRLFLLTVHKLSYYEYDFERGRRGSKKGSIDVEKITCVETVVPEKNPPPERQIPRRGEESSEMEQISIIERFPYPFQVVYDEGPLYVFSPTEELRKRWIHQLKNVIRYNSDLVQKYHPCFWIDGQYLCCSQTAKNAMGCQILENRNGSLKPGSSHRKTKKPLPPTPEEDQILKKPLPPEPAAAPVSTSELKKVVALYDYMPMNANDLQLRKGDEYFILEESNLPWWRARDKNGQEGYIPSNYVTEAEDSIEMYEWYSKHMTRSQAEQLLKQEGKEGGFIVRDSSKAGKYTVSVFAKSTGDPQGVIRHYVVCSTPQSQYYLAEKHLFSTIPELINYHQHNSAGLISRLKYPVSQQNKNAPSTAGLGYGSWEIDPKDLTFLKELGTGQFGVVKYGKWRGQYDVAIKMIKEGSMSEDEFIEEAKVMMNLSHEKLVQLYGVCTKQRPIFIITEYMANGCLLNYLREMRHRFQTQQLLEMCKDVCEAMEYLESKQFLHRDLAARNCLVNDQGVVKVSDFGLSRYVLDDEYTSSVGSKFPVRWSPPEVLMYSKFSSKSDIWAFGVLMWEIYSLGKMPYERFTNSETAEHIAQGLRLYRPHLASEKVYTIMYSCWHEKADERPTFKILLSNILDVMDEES

Compound	IC50 [1]	IC50 [2]
Cn1nc(NC(=O)c2ccc(-c3nc([C@@H]4CC[C@H]5CCC(=O)N5C4)n4ccnc(N)c34)c(Cl)c2)cc1C(F)(F)F [Example 190, 4-{8-amino-3-[(6R,8aS)-3-oxooctahydroindolizin-6-yl]imidazo[1,5-a]pyrazin-1-yl}-3-chloro-N-[1-methyl-5-(trifluoromethyl)-1H-pyrazol-3-yl]benzamide]	2.2 nM	310 nM
Cn1nc(NC(=O)c2ccc(-c3nc([C@@H]4CC[C@H]5CCC(=O)N5C4)n4c(Cl)cnc(N)c34)c(Cl)c2)cc1C(F)(F)F [Example 191, 4-{8-amino-5-chloro-3-[(6R,8aS)-3-oxooctahydroindolizin-6-yl]imidazo[1,5-a]pyrazin-1-yl}-3-chloro-N-[1-methyl-5-(trifluoromethyl)-1H-pyrazol-3-yl]benzamide]	1.9 nM	994 nM
Cn1nc(NC(=O)c2cc(Cl)c(-c3nc([C@@H]4CC[C@H]5CCC(=O)N5C4)n4c(Cl)cnc(N)c34)cc2F)cc1C(F)(F)F [Example 192, 4-{8-amino-5-chloro-3-[(6R,8aS)-3-oxooctahydroindolizin-6-yl]imidazo[1,5-a]pyrazin-1-yl}-5-chloro-2-fluoro-N-[1-methyl-5-(trifluoromethyl)-1H-pyrazol-3-yl]benzamide]	24.6 nM	408 nM
Nc1nccn2c([C@@H]3CC[C@H]4CCC(=O)N4C3)nc(-c3cc(F)c(C(=O)Nc4cc(C(F)(F)F)ccn4)cc3Cl)c12 [Example 193, 4-{8-amino-3-[(6R,8aS)-3-oxooctahydroindolizin-6-yl]imidazo[1,5-a]pyrazin-1-yl}-5-chloro-2-fluoro-N-[4-(trifluoromethyl)pyridin-2-yl]benzamide]	4.6 nM	213 nM
Nc1ncc(Cl)n2c([C@@H]3CC[C@H]4CCC(=O)N4C3)nc(-c3ccc(C(=O)Nc4cc(C(F)(F)F)ccn4)cc3Cl)c12 [Example 194, 4-{8-amino-5-chloro-3-[(6R,8aS)-3-oxooctahydroindolizin-6-yl]imidazo[1,5-a]pyrazin-1-yl}-3-chloro-N-[4-(trifluoromethyl)pyridin-2-yl]benzamide]	0.39 nM	226 nM
Cc1cnc(NC(=O)c2ccc(-c3nc([C@@H]4CC[C@H]5CCC(=O)N5C4)n4ccnc(N)c34)c(Cl)c2)s1 [Example 195, 4-(8-amino-3-((6R,8aS)-3-oxooctahydroindolizin-6-yl)imidazo[1,5-a]pyrazin-1-yl)-3-chloro-N-(5-methylthiazol-2-yl)benzamide]	0.63 nM	175 nM
Cc1cnc(NC(=O)c2ccc(-c3nc([C@@H]4CC[C@H]5CCC(=O)N5C4)n4c(Cl)cnc(N)c34)c(Cl)c2)s1 [Example 196, 4-(8-amino-5-chloro-3-((6R,8aS)-3-oxooctahydroindolizin-6-yl)imidazo[1,5-a]pyrazin-1-yl)-3-chloro-N-(5-methylthiazol-2-yl)benzamide]	1.5 nM	741 nM
Cc1cc(C(=O)Nc2cc(C(F)(F)F)ccn2)c(F)cc1-c1nc([C@@H]2CC[C@H]3CCC(=O)N3C2)n2c(Cl)cnc(N)c12 [Example 197, 4-(8-amino-5-chloro-3-((6R,8aS)-3-oxooctahydroindolizin-6-yl)imidazo[1,5-a]pyrazin-1-yl)-2-fluoro-5-methyl-N-(4-(trifluoromethyl)pyridin-2-yl)benzamide]	7.8 nM	199 nM
Cc1cc(C(=O)Nc2cc(C(F)(F)F)ccn2)c(F)cc1-c1nc([C@@H]2CC[C@H]3CCC(=O)N3C2)n2ccnc(N)c12 [Example 198, 4-(8-amino-3-((6R,8aS)-3-oxooctahydroindolizin-6-yl)imidazo[1,5-a]pyrazin-1-yl)-2-fluoro-5-methyl-N-(4-(trifluoromethyl)pyridin-2-yl)benzamide]	8.2 nM	252 nM
CCOCCOc1cc(C(=O)Nc2cc(C(F)(F)F)ccn2)ccc1-c1nc([C@@H]2CC[C@H]3CCC(=O)N3C2)n2ccnc(N)c12 [Example 201, 4-{8-amino-3-[(6R,8aS)-3-oxooctahydroindolizin-6-yl]imidazo[1,5-a]pyrazin-1-yl}-3-(2-ethoxyethoxy)-N-[4-(trifluoromethyl)pyridin-2-yl]benzamide]	3.2 nM	5890 nM
COc1cc(C(=O)Nc2ncc(C)s2)ccc1-c1nc([C@@H]2CC[C@H]3CCC(=O)N3C2)n2ccnc(N)c12 [Example 202, 4-{8-amino-3-[(6R,8aS)-3-oxooctahydroindolizin-6-yl]imidazo[1,5-a]pyrazin-1-yl}-3-methoxy-N-(5-methyl-1,3-thiazol-2-yl)benzamide]	5.2 nM	6880 nM
COc1cc(C(=O)Nc2ncc(C)s2)ccc1-c1nc([C@@H]2CC[C@H]3CCC(=O)N3C2)n2c(Cl)cnc(N)c12 [Example 203, 4-{8-amino-5-chloro-3-[(6R,8aS)-3-oxooctahydroindolizin-6-yl]imidazo[1,5-a]pyrazin-1-yl}-3-methoxy-N-(5-methyl-1,3-thiazol-2-yl)benzamide]	1.7 nM	1730 nM
C#CCCOc1cc(C(=O)Nc2cc(C(F)(F)F)ccn2)ccc1-c1nc([C@@H]2CC[C@H]3CCC(=O)N3C2)n2ccnc(N)c12 [Example 204, 4-{8-amino-3-[(6R,8aS)-3-oxooctahydroindolizin-6-yl]imidazo[1,5-a]pyrazin-1-yl}-3-(but-3-yn-1-yloxy)-N-[4-(trifluoromethyl)pyridin-2-yl]benzamide]	0.75 nM	1390 nM
CCOc1cc(C(=O)Nc2cc(C(F)(F)F)n(C)n2)ccc1-c1nc([C@@H]2CC[C@H]3CCC(=O)N3C2)n2c(C)cnc(N)c12 [Example 205, 4-{8-amino-5-methyl-3-[(6R,8aS)-3-oxooctahydroindolizin-6-yl]imidazo[1,5-a]pyrazin-1-yl}-3-ethoxy-N-[1-methyl-5-(trifluoromethyl)-1H-pyrazol-3-yl]benzamide]	1.2 nM	2360 nM
CCOc1cc(C(=O)Nc2cc(C(F)(F)F)ccn2)ccc1-c1nc([C@@H]2CC[C@H]3CCC(=O)N3C2)n2c(C(F)(F)F)cnc(N)c12 [Example 206, 4-{8-amino-3-[(6R,8aS)-3-oxooctahydroindolizin-6-yl]-5-(trifluoromethyl)imidazo [1,5-a]pyrazin-1-yl}-3-ethoxy-N-[4-(trifluoromethyl)pyridin-2-yl]benzamide]	0.72 nM	1110 nM
CCc1ccnc(NC(=O)c2ccc(-c3nc([C@@H]4CC[C@H]5CCC(=O)N5C4)n4c(Cl)cnc(N)c34)c(OC)c2)c1 [Example 207, 4-{8-amino-5-chloro-3-[(6R,8aS)-3-oxooctahydroindolizin-6-yl]imidazo[1,5-a]pyrazin-1-yl}-N-(4-ethylpyridin-2-yl)-3-methoxybenzamide]	0.58 nM	377 nM
COc1ccnc(NC(=O)c2ccc(-c3nc([C@@H]4CC[C@H]5CCC(=O)N5C4)n4c(Cl)cnc(N)c34)c(OC)c2)c1 [Example 208, 4-{8-amino-5-chloro-3-[(6R,8aS)-3-oxooctahydroindolizin-6-yl]imidazo[1,5-a]pyrazin-1-yl}-3-methoxy-N-(4-methoxypyridin-2-yl)benzamide]	1.6 nM	386 nM
COc1cc(C(=O)Nc2cc(C3CCC3)ccn2)ccc1-c1nc([C@@H]2CC[C@H]3CCC(=O)N3C2)n2c(Cl)cnc(N)c12 [Example 209, 4-{8-amino-5-chloro-3-[(6R,8aS)-3-oxooctahydroindolizin-6-yl]imidazo[1,5-a]pyrazin-1-yl}-N-(4-cyclobutylpyridin-2-yl)-3-methoxybenzamide]	0.41 nM	582 nM
COc1cc(C(=O)Nc2ccc(C)cn2)ccc1-c1nc([C@@H]2CC[C@H]3CCC(=O)N3C2)n2c(Cl)cnc(N)c12 [Example 210, 4-{8-amino-5-chloro-3-[(6R,8aS)-3-oxooctahydroindolizin-6-yl]imidazo[1,5-a]pyrazin-1-yl}-3-methoxy-N-(5-methylpyridin-2-yl)benzamide]	1.4 nM	1120 nM
Nc1ncc(C(F)(F)F)n2c([C@@H]3CC[C@H]4CCC(=O)N4C3)nc(-c3ccc(C(=O)Nc4cc(C(F)(F)F)ccn4)cc3Cl)c12 [Example 211, 4-{8-amino-3-[(6R,8aS)-3-oxooctahydroindolizin-6-yl]-5-(trifluoromethyl)imidazo[1,5-a]pyrazin-1-yl}-3-chloro-N-[4-(trifluoromethyl)pyridin-2-yl]benzamide]	9 nM	269 nM
Nc1ncc(C(F)(F)F)n2c([C@@H]3CC[C@H]4CCC(=O)N4C3)nc(-c3ccc(C(=O)Nc4cc(C5CC5)ccn4)cc3F)c12 [Example 212, 4-{8-amino-3-[(6R,8aS)-3-oxooctahydroindolizin-6-yl]-5-(trifluoromethyl)imidazo [1,5-a]pyrazin-1-yl}-N-(4-cyclopropylpyridin-2-yl)-3-fluorobenzamide]	3.8 nM	86.9 nM
COc1cc(C(=O)Nc2cc(C(F)(F)F)ccn2)ccc1-c1nc([C@@H]2CC[C@H]3CCC(=O)N3C2)n2c(C(F)(F)F)cnc(N)c12 [Example 213, 4-{8-amino-3-[(6R,8aS)-3-oxooctahydroindolizin-6-yl]-5-(trifluoromethyl)imidazo[1,5-a]pyrazin-1-yl}-3-methoxy-N-[4-(trifluoromethyl)pyridin-2-yl]benzamide]	2.7 nM	699 nM
Cc1cc(C(=O)Nc2cc(C(F)(F)F)ccn2)cc(F)c1-c1nc([C@@H]2CC[C@H]3CCC(=O)N3C2)n2ccnc(N)c12 [Example 214, 4-{8-amino-3-[(6R,8aS)-3-oxooctahydroindolizin-6-yl]imidazo[1,5-a]pyrazin-1-yl}-3-fluoro-5-methyl-N-[4-(trifluoromethyl)pyridin-2-yl]benzamide]	2.2 nM	517 nM

Source: patent US20140206681A1, “BTK INHIBITORS” (priority 2013, published 2014)
